Results taken from US9346832B2, “Gold complexes for use in the treatment of cancer” (University of Kwazulu-Natal, priority 2010, dated 2016).
Entries after “also recorded” stand apart in the source; their conditions may differ. Like-named read-outs stand apart in the source and are kept apart here.

What was measured:
[1] = test system: 60 human cancer cell lines; assay: NCI-60 five-dose screen, mean cytotoxicity over 60 human cancer cell lines; assay type: cell-based
Method: (§1) The gold(III) complexes of this invention were screened by the National Cancer Institute (NCI, USA) against their panel of 60 different human cancer cell lines. These screens initially entail a one-dose test for the compound at a high concentration (10 μM; e.g. FIGS. 5, 6 and 7). Compounds with a good cytotoxicity profile in the one-dose screen are then subjected to a five-dose screen for the full panel of sixty human cancer cell lines (the so-called 5-dose NCI-60 screen). In the full five-dose screen, the compound concentration is varied in five doses from 10^−8 M to 10^−4 M in order to establish a dose-response function of percentage cell growth versus the concentration of the test agent. […] Similar data will shortly be available for compounds 1.1Y^1b and 1.5Y^1a as these derivatives are in 5-dose screens currently at the NCI.
The mean cytotoxicity data summarized in Scheme 7 were compiled over 60 human cancer cell lines from the NCI database. […] The dose-response curves for the bis(pyrrolide-imine) chelates of the invention are steeper, or harder, than those of all the compounds compared in Scheme 7.

[2] = Genotoxicity
Excerpt: First, the compound is not genotoxic (i.e. mutagenic).

[3] = test system: HepG2 human hepatocellular carcinoma cells; assay: HepG2 cytotoxicity / cell health parameters; assay type: cell-based
Excerpt: The data for MA_AuPr in Scheme 22 are consistent with a cytotoxic compound capable of inducing apoptosis (programmed cell death) and, indeed, a compound that performs better than the control drug. […] Other cell health parameters which respond are a loss of total cells per well (indicating toxicity due to necrosis, apoptosis or a reduction in cellular proliferation), an increase in nuclear area (indicating necrosis or G2 cell cycle arrest), an increase in cytochrome c release (implying activation of a signalling cascade leading to apoptosis). The latter is particularly relevant as we may rule out cell death by necrosis in the case of MA_AuPr. The mechanism of action of the compound thus leads to cell cycle arrest in the G2 phase and the induction of apoptosis (highly desirable for an anticancer drug). […] Since the compound induces cytochrome c release, cytotoxicity involves apoptosis.

[4] = test system: 3LL tumor (Lewis lung carcinoma); assay: 3LL tumor growth in black mice
[5] = test system: human cancer cell lines; assay: Cytotoxicity summary (NCI-60 or independent cytotoxicity screen), Scheme 19; assay type: cell-based
[6] = test system: 60 human cancer cell lines; assay: NCI-60 one-dose screen; assay type: cell-based; details: single dose 10 μM
Method: as §1
The results of one-dose NCI-60 screens are noteworthy and merit some discussion as they quickly indicate activity profiles, cell-line specificity, and general cytotoxicity for the test agents across multiple human cancer cell lines. FIGS. 5, 6, and 7 set out the one-dose screening results for MA_AuPr (FIG. 5), KA_AumacroPr (FIG. 6), and KA_AuMelmPr (FIG. 7) obtained by the NCI. These three compounds are the parent derivatives that are representative of the three new types of gold(III) Schiff base chelate relevant to this invention. All other compounds synthesized as part of this invention have been similarly analyzed.

Structure (SMILES): C1=NCCCN=Cc2ccc[n]2[Au+][n]2cccc21.[Cl-] [MA_AuPr, 2,2′-{propane-1,3-diylbis[nitrilo(E)methylylidene]}bis(pyrrol-1-ido)gold(III) chloride]
- fraction of cancer cell lines equivalently or more susceptible than to cisplatin ([1]; 60 human cancer cell lines): ca. 25%
- CC50 ([1]; mean over 60 human cancer cell lines, 50% cell death, read-out: LC50 (the source's name)): 49 µM
- GI50 ([1]; mean over 60 human cancer cell lines, 50% growth inhibition): 7 µM
- TGI (concentration for total growth inhibition) ([1]; mean over 60 human cancer cell lines, 100% (total) growth inhibition, read-out: TGI or IC50): 20 µM
- increase in concentration from 50% growth inhibition to 50% cell kill ([1]; on average over the full 60 cell lines): 7 fold
- growth inhibition activity relative to cisplatin, on average ([1]; plot of −log(GI50/M) versus cisplatin, FIG. 10): 95%
- Genotoxicity [2]: not genotoxic; also recorded: Negative
- Cytotoxicity (Hep-G2) [3]: Strong positive
- Cytochrome C release MEC ([3]; HepG2): 19 µM
- DNA structure MEC ([3]; HepG2): >19 µM
- Mitochondrial mass MEC ([3]; HepG2): 2.1 µM
- Mitochondrial membrane potential MEC ([3]; HepG2): 6.2 µM
- Nuclear Area MEC ([3]; HepG2): 6.2 µM
- Cell Loss MEC ([3]; HepG2, minimum effective concentration): <0.23 µM
- AC50 ([3]; HepG2, read-out: Cell Loss AC50): 7.4 µM
- AC50 ([3]; HepG2, read-out: Cytochrome C release AC50): 33 µM
- AC50 ([3]; HepG2, read-out: Membrane permeability AC50): 16 µM
- AC50 ([3]; HepG2, read-out: Mitochondrial mass AC50): 41 µM
- AC50 ([3]; HepG2, read-out: Mitochondrial membrane potential AC50): > 500 µM
- AC50 ([3]; HepG2, read-out: Nuclear Area AC50): 17 µM
- in vivo performance relative to cisplatin ([4]; 3LL tumors, 20 days): about 43%
- reduction of 3LL tumor growth rate relative to control ([4]; after 20 days, 20 μmol/kg twice weekly): about 33%
- Cytotoxicity [5]: active
- one-dose screening result [6]: leukemia, breast, and colon cancer cell lines are inherently more susceptible
